Assay: Dependence of aminoboronate (closed) and boronic acid (open) forms on pH, 1H-NMR in D2O phosphate
Type: physicochemical
Settings: 0.4 M Na2HPO4 in D2O, three days in the dark, FIG. 1
Procedure: A 0.4 M stock solution of Na2HPO4 was prepared by dissolving 909 mg of salt in 16 mL of D2O. pH was adjusted to the desired value by dropwise addition of either […] in D2O or 5% DCl in D2O. The pH values were measured with a Fisher Scientific Accumet AB15 pH meter. Aliquots of the stock solution (4 mL) were prepared and 8 mg of compound 4 in the closed form (aminoboronate) were added to each one. The scintillation vials were capped, sealed with parafilm and allowed to stand in the dark for three days. After this time pH was measured again. The open/closed (i.e., linear/cyclic) ratio of compound 4 isomers at each pH was determined by recording the corresponding ^1H-NMR spectra in a Varian AS 500 MHz instrument and measuring the ratio of the integrals of the peaks at 2.90-2.95 ppm and 2.40-2.50 ppm characteristic of the open and closed forms, respectively.

O=C(CNC1CCCC1)N1CCC[C@H]1B(O)O [Compound 4, (2R)-1-(2-Cyclopentylamino-acetyl)-boroPro-OH]
open/closed (linear/cyclic) ratio of isomers at each pH: the closed form predominates at higher pHs such as physiological pH, whereas the open form predominates at lower pHs

Source: patent US8415295B2, “Heterocyclic boronic acid compounds” (Phenomix Corporation, priority 2003, dated 2013)
